In ChEMBL document CHEMBL5357056, “Precursor-Directed Biosynthesis of Antialgal Fluorinated Bacillamide Derivatives in Bacillus atrophaeus” (J Nat Prod, 2024) one finds IC50 data, which are given here for twelve compounds.

One test deals with Karenia brevis. Nature of the test: Anti-phytoplankton activity against Karenia brevis assessed as change in chlorophyll a level measured after 72 hrs by fluorescence based analysis. The test is classed as functional, organism-based.
A short description of test [1]: Anti-phytoplankton activity against Skeletonema grethae assessed as reduction in chlorophyll a level measured after 72 hrs by fluorescence based analysis. The test is classed as functional, organism-based.

Take `N#Cc1c(-c2ccc(Cl)cc2)[nH]c(C(F)(F)F)c1Br`: the IC50 in the test on Karenia brevis is 1.35 µM; in test [1] it was 13.1 µM.

With `CC(=O)NCCc1c[nH]c2ccccc12`, the IC50 (in the test on Karenia brevis; in test [1]) was more than 200 µM in each case.

Regarding `CC(=O)NCCc1c[nH]c2cccc(F)c12`, the IC50 (in the test with Karenia brevis; in test [1]) was more than 200 µM each time.

Regarding `CC(=O)N[C@H](C)c1nc(C(=O)NCCc2c[nH]c3cccc(F)c23)cs1`, the IC50 (in the test on Karenia brevis; in test [1]) was more than 200 µM each time.

With `CC(=O)N[C@H](C)c1nc(C(=O)NCCc2c[nH]c3cc(F)ccc23)cs1`, the IC50 with Karenia brevis was 28.7 µM; in test [1], more than 200 µM.

On to `CC(=O)c1nc(C(=O)NCCc2c[nH]c3cccc(F)c23)cs1`, for which the IC50 (with Karenia brevis; in test [1]) was more than 200 µM each time.

Take `CC(=O)c1nc(C(=O)NCCc2c[nH]c3ccc(F)cc23)cs1`: the figures for the IC50 (in the test on Karenia brevis; in test [1]) were 186 µM and more than 200 µM, respectively.

With `CC(=O)c1nc(C(=O)NCCc2c[nH]c3cc(F)ccc23)cs1`, the IC50 is 107 µM in the test with Karenia brevis and more than 200 µM in test [1].

With `CC(=O)N[C@H](C)c1nc(C(=O)NCCc2c[nH]c3ccc(F)cc23)cs1`, the IC50 (with Karenia brevis; in test [1]) was more than 200 µM throughout.

As for `CC(=O)c1nc(C(=O)NCCc2c[nH]c3ccccc23)cs1` [BACILLAMIDE A], the IC50 (in the test on Karenia brevis; in test [1]) was more than 200 µM throughout.

Regarding `CC(=O)N[C@H](C)c1nc(C(=O)NCCc2c[nH]c3ccccc23)cs1` [BACILLAMIDE C], the IC50 (in the test with Karenia brevis; in test [1]) was more than 200 µM in each case.

`C[C@@H]1C[C@@H]([C@H](O)CC2CC(=O)NC(=O)C2)C(=O)[C@@H](C)C1` [CYCLOHEXIMIDE]: the values for the IC50 (with Karenia brevis; in test [1]) were 0.55 µM and 0.5 µM, respectively.

Usually IC50 stands for the concentration at which inhibition is half-maximal.
